Measurements published in ChEMBL document CHEMBL4002646, “Antimalarial Properties of Simplified Kalihinol Analogues” (ACS Med Chem Lett, 2017).

Legend:
Plasmodium falciparum [1] = assay: Antimalarial activity against chloroquine-resistant Plasmodium falciparum FCR-3 ATCC 30932 infected in human RBC after 72 hrs by Geimsa staining based microscopic method; type: functional; settings: FCR-3/Gambia ATCC 30932, 72 h
Plasmodium falciparum [2] = assay: Antimalarial activity against chloroquine-resistant Plasmodium falciparum Dd2 infected in human O+ erythrocytes after 72 hrs by SYBR green fluorescence-based method; type: functional, cell-based
Plasmodium falciparum [3] = assay: Antimalarial activity against Plasmodium falciparum 3D7 infected in human O+ erythrocytes after 72 hrs by SYBR green fluorescence-based method; type: functional, cell-based
Plasmodium falciparum [4] = assay: Antimalarial activity against chloroquine-resistant Plasmodium falciparum W2 infected in human RBC after 72 hrs; type: functional; settings: W2, 72 h
[5] = Plasmodium falciparum, Dd2, 72 h
[6] = Plasmodium falciparum, 3D7, 72 h

SMILES: CC1(C)O[C@@](C)([C@H]2CC[C@](C)(C#N)[C@H]3CC[C@@](C)(O)[C@H](C#N)[C@@H]32)CC[C@@H]1Cl
- IC50 (Plasmodium falciparum [1]): 1.2 nM

SMILES: CC1=C[C@@]2(O)[C@@H](CC1)[C@@](C)(C#N)CC[C@@H]2[C@@]1(C)CC[C@@H](C(C)(C)C#N)O1
- IC50 (Plasmodium falciparum [1]): 80 nM

SMILES: CC(C)(O)C[C@@H]1[C@@]2(C)CCCC(C)(C)[C@@H]2CC[C@]1(C)C#N
- IC50 (Plasmodium falciparum [2]; [5]): 416 nM
- IC50 (Plasmodium falciparum [3]; [6]): 244 nM

SMILES: CC(C)[C@H]1CC[C@](C)(C#N)[C@H]2CC[C@@](C)(C#N)[C@H](O)[C@H]12 (racemic)
- IC50 (Plasmodium falciparum [2]): 46 nM
- IC50 (Plasmodium falciparum [3]): 27 nM

SMILES: CC(C)[C@H]1CC[C@@](C)(C#N)[C@H]2CC[C@@](C)(C#N)[C@H](O)[C@H]12
- IC50 (Plasmodium falciparum [2]; [5]): 958 nM
- IC50 (Plasmodium falciparum [3]; [6]): 1150 nM

SMILES: CC1=C[C@H]2[C@H](CC1)[C@@](C)(C#N)CC[C@@H]2[C@@]1(C)CC[C@](C#N)(C(C)C)O1
- IC50 (Plasmodium falciparum [2]; [5]): 123 nM
- IC50 (Plasmodium falciparum [3]; [6]): 175 nM

SMILES: C[C@]1(C#N)CC[C@H](CCO)[C@H]2[C@@H](C#N)[C@](C)(O)CC[C@@H]21 (racemic)
- IC50 (Plasmodium falciparum [2]; [5]): 205 nM
- IC50 (Plasmodium falciparum [3]; [6]): 302 nM

SMILES: CC(C)(Cl)[C@@H]1CC[C@](C)([C@H]2CC[C@](C)(C#N)[C@H]3CC[C@@](C)(O)[C@H](C#N)[C@@H]32)O1
- IC50 (Plasmodium falciparum [2]; [5]): 4.6 nM
- IC50 (Plasmodium falciparum [3]; [6]): 8.4 nM

SMILES: CC1=C[C@@H]2[C@@H](C(C)C)CC[C@@](C)(C#N)[C@@H]2CC1 (racemic)
- IC50 (Plasmodium falciparum [2]; [5]): 45 nM
- IC50 (Plasmodium falciparum [3]; [6]): 180 nM

SMILES: CC(C)[C@H]1CC[C@](C)(C#N)[C@H]2CC[C@@](C)(O)[C@H](C#N)[C@H]12
- IC50 (Plasmodium falciparum [2]; [5]): 16 nM
- IC50 (Plasmodium falciparum [3]; [6]): 12 nM

SMILES: C[C@@H]1C[C@@H]2C[C@H](C)[C@H]3CC[C@](C)(C#N)[C@H]4CC[C@@H]([C@@H]2[C@H]34)[C@]1(C)C#N
- IC50 (Plasmodium falciparum [2]; [5]): 1.6 nM
- IC50 (Plasmodium falciparum [4]): 13 nM

SMILES: CC(C)[C@H]1CC[C@](C)(C#N)[C@H]2CC[C@@](C)(C#N)[C@H](O)[C@H]12
- IC50 (Plasmodium falciparum [2]): 17 nM
- IC50 (Plasmodium falciparum [3]; [6]): 15 nM

SMILES: CC(C)(C#N)C[C@@H]1[C@@]2(C)CCCC(C)(C)[C@@H]2CC[C@]1(C)C#N
- IC50 (Plasmodium falciparum [2]; [5]): 1.6 nM
- IC50 (Plasmodium falciparum [3]; [6]): 1.9 nM

SMILES: CC(C)[C@H]1CC[C@@](C)(C#N)[C@H]2CC[C@@](C)(O)[C@H](C#N)[C@H]12
- IC50 (Plasmodium falciparum [2]; [5]): 31 nM
- IC50 (Plasmodium falciparum [3]; [6]): 2.9 nM

SMILES: CC1=C[C@@H]2[C@@H](C(C)C)CC[C@](C)(C#N)[C@H]2CC1 (racemic)
- IC50 (Plasmodium falciparum [2]; [5]): 247 nM
- IC50 (Plasmodium falciparum [3]; [6]): 705 nM
